{"source": "patent US4229438A", "about": "“Nonapeptides” (Takeda Chemical Industries, Ltd., priority 1978, dated 1980)", "note": "Residues, ends and D or L forms follow the SMILES beside them."}
{"system": "spleen cells of C3H/He mouse (23-26% albumin layer interface fraction)", "experiment": "Determination of theta antigen induction activity (procedure analogous to Komuro et al)", "assay_type": "cell-based", "conditions": "C3H/He mouse spleen cell fraction in RPMI-1640, incubated with peptide at 37° C. for 2 hours; lysis with anti(theta) serum and guinea-pig complement", "experimental": "The theta antigen induction activity of the nonapeptide (I) is assayed by a procedure analogous to the procedure described in the article of Komuro et al [The Lancet, i, 740-743 (1973)]. The spleen is enucleated from a C3H/He mouse, 2-3 months old, and minced in a tissue culture fluid (RPMI-1640). The resulting spleen cell suspension is fractionated by discontinuous density gradient centrifugation using 10 to 35% bovine serum albumin. The cells migrating to the 23-26% albumin layer interface are collected and resuspended in RPMI-1640. To this cell suspension is added the peptide, the activity of which is to be determined, at a varying concentration and the mixture is incubated at 37° C. for 2 hours. If the peptide added be active, fresh theta antigen will appear on the cell surface. Therefore, the count of such cells is taken by lysing with an outbred mouse anti(theta) serum and guinea-pig complement. The theta-antigen induction activity is computed by means of the following equation. Theta-antigen induction activity(%)=(A-B/A)×100 where A is the count of theta antigen-negative cells in the absence of the test peptide and B is the count of theta antigen-negative cells when the test peptide has been added.", "units": {"The concentration required for showing at least 10% theta antigen induction activity": "ng/mL"}}
{"molecule": "C[C@H](NC(=O)[C@@H]1CCC(=O)N1)C(=O)N[C@@H](CCCCN)C(=O)N[C@@H](CO)C(=O)N[C@@H](CCC(N)=O)C(=O)N[C@H](C)C(=O)NCC(=O)N[C@@H](CO)C(=O)N[C@@H](CC(N)=O)C(=O)O", "note": "[Example 4, pGlu-Ala-Lys-Ser-Gln-(D)-Ala-Gly-Ser-Asn-OH] (HELM PEPTIDE1{[Glp].A.K.S.Q.[dA].G.S.N}$$$$V2.0)", "The concentration required for showing at least 10% theta antigen induction activity": "0.1 to 1"}
{"molecule": "C[C@@H](NC(=O)[C@@H]1CCC(=O)N1)C(=O)N[C@@H](CCCCN)C(=O)N[C@@H](CO)C(=O)N[C@@H](CCC(N)=O)C(=O)NCC(=O)NCC(=O)N[C@@H](CO)C(=O)N[C@@H](CC(N)=O)C(=O)O", "note": "[Example 1, pGlu-(D)-Ala-Lys-Ser-Gln-Gly-Gly-Ser-Asn-OH] (HELM PEPTIDE1{[Glp].[dA].K.S.Q.G.G.S.N}$$$$V2.0)", "The concentration required for showing at least 10% theta antigen induction activity": "1 to 10"}
{"molecule": "C[C@H](NC(=O)[C@@H]1CCC(=O)N1)C(=O)N[C@@H](CCCCN)C(=O)N[C@@H](CO)C(=O)N[C@@H](CCC(N)=O)C(=O)NCC(=O)N[C@H](C)C(=O)N[C@@H](CO)C(=O)N[C@@H](CC(N)=O)C(=O)O", "note": "[Example 3, pGlu-Ala-Lys-Ser-Gln-Gly-(D)-Ala-Ser-Asn-OH] (HELM PEPTIDE1{[Glp].A.K.S.Q.G.[dA].S.N}$$$$V2.0)", "The concentration required for showing at least 10% theta antigen induction activity": "1 to 10"}
